Columns and labels:
[1] = Oxipres antioxidant efficacy value (EV) in fish meal; conditions: 70° C., 5 bar oxygen, 130 hours, equimolar to BHT, EV relative to BHT (EV=1)
Description: (§1) Oxidative stability was assessed using an Oxipres (Mikrolab Aarhus A/S, Hojbjerg, Denmark). The ML OXIPRES® is designed to monitor the oxidation of heterogeneous products. Consumption of oxygen results in a pressure drop which is measured by means of pressure transducers. The samples are heated to accelerate the process and shorten the analysis time (Mikrolab Aarhus 2012).
(§2) Sample weights were 50 g. They were loaded into the Oxipres vessels and placed inside the stainless-steel pressure vessel and sealed. The pressure vessels were purged with pure oxygen and filled to an initial oxygen pressure of 5 bar and maintained at 70° C. during measurement (D. Ying, L. Edin, L. Cheng, L. Sanguansri, M. A. Augustin, LWT-Food Science and Technology 2015, 62, 1105-1111: “Enhanced oxidative stability of extruded product containing polyunsaturated oils.”).
(§3) The oxygen pressure was recorded as function of time. After sample load and temperature rise the pressure in the device is increasing within 10 hours. Thereafter it is decreasing. Consequently, the starting pressure is considered to be the pressure after 10 hours. The analysis ends after 130 hours at 70° C. The oxygen consumption ‘02’ of the tested sample is calculated as follows: […]
(§4) A factor of protection called ‘EV’ (Efficacy Value) was developed to quantify with a relative number (relative to BHT) the antioxidant effect of the tested candidates. EV was calculated as follows:
(§5) EV, being relative to BHT (3,5-di-tert-butyl-4-hydroxy-toluene) (EV=1), makes it possible to compare the antioxidant compounds in a defined feed application.
(§6) Compounds of formulae (1) to (7) were mixed each into the matrix 1, 2 or 3 (pet food, poultry meal, fish meal) in an equimolar ratio compared to BHT. Batches of 200 g feed were produced in order to handle a minimum of 30 mg of antioxidant. First, a 1% pre-dilution of the antioxidant with the feed material was made. Then this pre-dilution was added to the final batch, mixed, sieved (1.25 mm sieve) and mixed using a turbula® mixer. Thereafter 55 g of the final batch were packed into polyethylene bags and stored at 4° C. till time of Oxipres assay. Spare sample were stored at 4° C. An efficacy value 0.7 has been considered as acceptable, an efficacy value the efficacy value of alpha-tocopherol as good, and an efficacy value the efficacy value of BHT as very good.

[2] = Oxipres antioxidant efficacy value (EV) in poultry meal; conditions: 70° C., 5 bar oxygen, 130 hours, equimolar to BHT, EV relative to BHT (EV=1)
Description: as §1, §2, §3, §4, §5, §6

[3] = Polymers generated at the end of the fish oil stabilization experiment (LC); conditions: 2 mg/g in FG30TG oil, without AP
Description: (§7) Two different levels of compound of formula (1) (0.5 and 2 mg/g) were used in 5 g of natural fish oil (Product Code: FG30TG) and used in the Oxidative Stability Instrument at 80° C. with the air flow rate of 40 psi. The solubility of different amounts and types of antioxidants used in 051 was checked before and after the application. […] Compound of formula (1) was used in the Oxidative Stability instruments under the same conditions used for fish oil evaluations. Also, the synergistic effect of compound of formula (1) with ascorbyl palmitate (AP) was determined using the OSI values. The polymers generated at the end of the experiment were determined by LC.
Polymers generated at the end of the stabilization experiment of fish oil with compound of formula (1) and AP are shown in Table 11.
Polymers are combination of complex compounds generated at the end of the oxidation cascade of unsaturated fatty acids and, they indicate the levels of overall oxidation of the matrix. The generation of such polymers in fish oil containing compound of formula (1) could be reduced considerably when AP was added as a synergistic compound (Table 11).

[4] = Oil Stability Index (Oxidative Stability Instrument) in FG30TG fish oil
Description: Compound of formula (1) was evaluated primarily for its oxidative stability by the Oil Stability Index measurements.
as §7

Solubility in fish oil = format: physicochemical
Description: as §7

[5] = Storage stability study of fish oil (PV, p-AV, CD); conditions: 2 mg/g in FG30TG
Description: Tables 12, 13 and 14 show the PV (peroxide value), p-AV (p-anisidine value) and CD (conjugated dienoic acid in %) of the fish oil samples stabilized with compound of formula (1). For the storage stability study compound of formula (1) was used in fish oil at only 2 mg/g level. […] MNT had the lowest PV values. There was no considerable variation in p-AV and CD (Tables 13-14) during the storage.

[6] = Oxipres antioxidant efficacy value (EV) in pet food; conditions: 70° C., 5 bar oxygen, 130 hours, equimolar to BHT, EV relative to BHT (EV=1)
Description: as §1, §2
The oxygen pressure was recorded as function of time. After sample load and temperature rise the pressure in the device is increasing within 10 hours. Thereafter it is decreasing. Consequently, the starting pressure is considered to be the pressure after 10 hours. […] The oxygen consumption ‘02’ of the tested sample is calculated as follows: […]
A factor of protection called ‘EV’ (Efficacy Value) was developed to quantify with a relative number (relative to BHT) the antioxidant effect of the tested candidates. EV was calculated as follows: […]

[7] = Oil Stability Index in crude algal oil
Description: as §7
This algal oil already contained about 1.6 mg/g of MNT.

Compound: Cc1cc(C(C)(C)C)c(O)c(C(C)(C)C)c1 [BHT, 3,5-di-tert-butyl-4-hydroxy-toluene, reference compound]
- EV in Fish meal [1]: 1
- EV in poultry meal [2]: 1

Compound: CC1=CC(C)(C)Oc2ccc(O)cc21 [Compound of formula (1), 2,2,4-trimethyl-2H-chromen-6-ol]
- Polymers (%) [3]: 34.67%
- OSI ([4]; Table 7, 0.5 mg/g in FG30TG fish oil, 80° C., air flow 40 psi): 5.95 h
- OSI ([4]; Table 7, 2 mg/g in FG30TG fish oil, 80° C., air flow 40 psi): 6.73 h
- Protection Factor (%) ([4]; Table 8, 0.5 mg/g in FG30TG fish oil): 25.26%
- Protection Factor (%) ([4]; Table 8, 2 mg/g in FG30TG fish oil): 41.58%
- OSI ([4]; Table 9, 2 mg/g in FG30TG fish oil, without AP): 5.70 h
- Protection Factor (%) ([4]; Table 10, 2 mg/g in FG30TG fish oil, without AP): 23.1%
- Solubility in fish oil, 80° C. (Solubility in fish oil; Amount 0.5 mg/g): Soluble
- Solubility in fish oil, Room temp. (Solubility in fish oil; Amount 0.5 mg/g): Soluble
- Solubility in fish oil, 80° C. (Solubility in fish oil; Amount 2.0 mg/g): Soluble
- Solubility in fish oil, Room temp. (Solubility in fish oil; Amount 2.0 mg/g): Soluble
- CD (conjugated dienoic acid in %) ([5]; 4 days): 0.8%
- PV (peroxide value) ([5]; 4 days): 2
- p-AV (p-anisidine value) ([5]; 4 days): 4.4
- CD (conjugated dienoic acid in %) ([5]; 6 days): 0.8%
- PV (peroxide value) ([5]; 6 days): 2.6
- p-AV (p-anisidine value) ([5]; 6 days): 7.2
- CD (conjugated dienoic acid in %) ([5]; 8 days): 0.9%
- PV (peroxide value) ([5]; 8 days): 3.8
- p-AV (p-anisidine value) ([5]; 8 days): 6.8
- CD (conjugated dienoic acid in %) ([5]; 11 days): 0.9%
- PV (peroxide value) ([5]; 11 days): 6.8
- p-AV (p-anisidine value) ([5]; 11 days): 7.6
- CD (conjugated dienoic acid in %) ([5]; 13 days): 0.8%
- PV (peroxide value) ([5]; 13 days): 9.8
- p-AV (p-anisidine value) ([5]; 13 days): 8.1
- CD (conjugated dienoic acid in %) ([5]; 15 days): 0.8%
- PV (peroxide value) ([5]; 17 days): 12.1
- p-AV (p-anisidine value) ([5]; 17 days): 8.5
- CD (conjugated dienoic acid in %) ([5]; Initial): 0.7%
- PV (peroxide value) ([5]; Initial): 0.9
- p-AV (p-anisidine value) ([5]; Initial): 9.9
- EV in Fish meal [1]: 0.94
- EV in poultry meal [2]: 1.10
- EV in pet food [6]: 0.97
- OSI ([7]; 0.5 mg/g added to crude algal oil already containing about 1.6 mg/g of MNT): 16.60 h
- OSI ([7]; 2 mg/g added to crude algal oil already containing about 1.6 mg/g of MNT): 18.55 h

Compound: CC1(C)C=Cc2cc(O)ccc2O1 [Compound of formula (2), 2,2-dimethyl-2H-chromen-6-ol]
- EV in poultry meal [2]: 1.11

Compound: CC1=CC(C)(C)Oc2c(C)c(C)c(O)c(C)c21 [Compound of formula (3), 2,2,4,5,7,8-hexamethyl-2H-chromen-6-ol]
- EV in Fish meal [1]: 0.89

Compound: Cc1c(C)c2c(c(C)c1O)C=CC(C)(C)O2 [Compound of formula (4), 2,2,5,7,8-pentamethyl-2H-chromen-6-ol]
- EV in Fish meal [1]: 1.10

Compound: CCOc1ccc2c(c1)C(C)=CC(C)(C)O2 [Compound of formula (5), 6-ethoxy-2,2,4-trimethyl-2H-chromene]
- EV in Fish meal [1]: 0.77

Compound: O=c1ccc2cc(O)ccc2o1 [Compound of formula (6), 6-hydroxycoumarin]
- EV in Fish meal [1]: 0.75

Compound: Oc1ccc2c(c1)C=CCO2 [Compound of formula (7), 2H-chromen-6-ol]
- EV in Fish meal [1]: 0.72

Compound: Cc1c(C)c2c(c(C)c1O)CC[C@@](C)(CCC[C@H](C)CCC[C@H](C)CCCC(C)C)O2 [alpha-tocopherol, reference compound]
- EV in Fish meal [1]: 0.88
- EV in poultry meal [2]: 0.74
- EV in pet food [6]: 0.77

From patent US20230165276A1, “NOVEL USE OF SUBSTITUTED 2H-CHROMENS AND THEIR DERIVATIVES” (DSM IP ASSETS B.V., priority 2018, published 2023)
